Values of other authors, collected in patent publication EP4778943A1, “LONG-ACTING PARATHYROID HORMONE RECEPTOR AGONIST FUSION PROTEIN AND USE THEREOF” (Shanghai Btd-Bio Technology Co., Ltd., priority 2023, dated 2025).
Where no end group is shown, it is not given here.

Assays:
[1] = continuous administration once a day for 6 months; cited from earlier work
mice = settings: continuous infusion 80 µg/kg BW/day for 2 weeks; cited from earlier work
[2] = system: TPTx (parathyroidectomy) rat model; settings: daily 1.2 nmol/kg (low dose) and 2.4 nmol/kg (high dose), after 4 weeks, versus model group; cited from earlier work

Compound | bone mineral density of L2-L4, increase [1] | bone mineral density (mice) | bone mineral density [2]
CC[C@H](C)[C@H](NC(=O)[C@H](CCC(=O)O)NC(=O)[C@H](CO)NC(=O)[C@@H](NC(=O)[C@@H](N)CO)C(C)C)C(=O)N[C@@H](CCC(N)=O)C(=O)N[C@@H](CC(C)C)C(=O)N[C@@H](CCSC)C(=O)N[C@@H](Cc1c[nH]cn1)C(=O)N[C@@H](CC(N)=O)C(=O)N[C@@H](CC(C)C)C(=O)NCC(=O)N[C@@H](CCCCN)C(=O)N[C@@H](Cc1c[nH]cn1)C(=O)N[C@@H](CC(C)C)C(=O)N[C@@H](CC(N)=O)C(=O)N[C@@H](CO)C(=O)N[C@@H](CCSC)C(=O)N[C@@H](CCC(=O)O)C(=O)N[C@@H](CCCNC(=N)N)C(=O)N[C@H](C(=O)N[C@@H](CCC(=O)O)C(=O)N[C@@H](Cc1c[nH]c2ccccc12)C(=O)N[C@@H](CC(C)C)C(=O)N[C@@H](CCCNC(=N)N)C(=O)N[C@@H](CCCCN)C(=O)N[C@@H](CCCCN)C(=O)N[C@@H](CC(C)C)C(=O)N[C@@H](CCC(N)=O)C(=O)N[C@@H](CC(=O)O)C(=O)N[C@H](C(=O)N[C@@H](Cc1c[nH]cn1)C(=O)N[C@@H](CC(N)=O)C(=O)N[C@@H](Cc1ccccc1)C(=O)O)C(C)C)C(C)C [teriparatide] | about 5% | significant decrease | 
Abaloparatide |  | significant decrease | 
TransCon PTH: long-acting PTH, generic name palopegteriparatide, trade name Yorvipath (SVSEIQLMHNLGKHLNSMERVEWLRKKLQDVHNF; also: PEG carrier attached via prodrug linker, site not given here; UniProt P01270 32-65, looked up, fragment) |  |  | significantly decreased
